Source: patent publication US20210009542A1 (Calico Life Sciences LLC, priority 2018, published 2021)
Read-outs that look alike come from different tables or passages of the source.

Key:
[1] = biological target: T1, His tagged PTPN2 (TC45) protein (Homo sapiens, UniProt P17706); experiment: Mobility shift assay (MSA) for potency of PTPN2 inhibitors; format: biochemical; settings: read-out: PTPN2 MSA IC50
T1 construct: made in house
T1 sequence (P17706 with tags, fused parts or gaps isoform P17706-2): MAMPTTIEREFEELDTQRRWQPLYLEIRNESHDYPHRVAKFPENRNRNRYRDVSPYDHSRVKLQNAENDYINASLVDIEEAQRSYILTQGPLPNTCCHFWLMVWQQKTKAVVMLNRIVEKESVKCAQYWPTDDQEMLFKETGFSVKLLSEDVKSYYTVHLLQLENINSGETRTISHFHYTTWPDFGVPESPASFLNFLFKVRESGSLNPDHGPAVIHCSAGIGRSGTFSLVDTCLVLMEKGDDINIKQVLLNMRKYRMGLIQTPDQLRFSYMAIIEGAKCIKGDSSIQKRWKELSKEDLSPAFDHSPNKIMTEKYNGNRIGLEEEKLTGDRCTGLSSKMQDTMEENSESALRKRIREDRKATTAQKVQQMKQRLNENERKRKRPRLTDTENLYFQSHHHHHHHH
Outline: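 IC50 values were derived from % inhibition of substrate conversion, measured by microfluidic mobility shift (ex 488/em 530) after quenching. The fluorescent phosphotyrosine insulin-receptor peptide ([…]) reacted for 10 min at room temperature with 0.5 nM His-tagged TC45 PTPN2 that had been preincubated 10 min with compound (12 points, 1:3). Buffer was HEPES pH 7.5 with EGTA, EDTA, Tween 20 and DTT.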

[2] = system: B16F10 mouse melanoma cells; experiment: B16F10 IFNγ-induced cellular growth inhibition assay; format: cell-based; settings: Mus musculus, B16-F10, 33 μM compound
Outline: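 Live-cell imaging of confluence every 6 h over 5 days at 37 °C tracked growth of mouse B16F10 melanoma cells seeded overnight at 500/well. Semi-log compound series (final 100–0.001 μM, 0.1% DMSO) ran in both arms, ±IFNγ at 0.5 ng/mL final; inhibition taken relative to DMSO plus IFNγ when IFNγ-free DMSO wells passed 95% confluence.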

[3] = +0.5 ng/mL IFNγ, relative to DMSO control, read-out: % B16F10 growth inhibition (+0.5 ng/mL IFNγ) @ 33 μM
[4] = no IFNγ, read-out: % B16F10 growth inhibition (no IFNγ) @ 33 μM

**Q.** What does the source list for `O=C1CN(c2c(O)cc3ccc(CCC4CC4)cc3c2F)S(=O)(=O)N1` [Compound 209, 5-[7-(2-cyclopropylethyl)-1-fluoro-3-hydroxynaphthalen-2-yl]-1λ^6,2,5-thiadiazolidine-1,1,3-trione]?
**A.** IC50 [1]: 1 to 10 nM; inhibition at 33 µM [2, 3]: 60 to 90%; inhibition at 33 µM [2, 4]: < 25%

**Q.** With `O=C1CN(c2c(O)cc3ccc(OCCC4CC4)cc3c2F)S(=O)(=O)N1` [Compound 211, 5-[7-(2-cyclopropylethoxy)-1-fluoro-3-hydroxynaphthalen-2-yl]-1λ^6,2,5-thiadiazolidine-1,1,3-trione] as the compound, how does the IC50 [1] read?
**A.** < 1 nM

**Q.** What about the inhibition at 33 µM [2, 3] of the same compound?
**A.** 60 to 90%

**Q.** And the inhibition at 33 µM [2, 4]?
**A.** < 25%

**Q.** Which results are given for `O=C1CN(c2c(O)cc3ccc(OCCOCC4CC4)cc3c2F)S(=O)(=O)N1` [Compound 212, 5-{7-[2-(cyclopropylmethoxy)ethoxy]-1-fluoro-3-hydroxynaphthalen-2-yl}-1λ^6,2,5-thiadiazolidine-1,1,3-trione]?
**A.** IC50 [1]: 1 to 10 nM; inhibition at 33 µM [2, 3]: 60 to 90%; inhibition at 33 µM [2, 4]: < 25%

**Q.** `O=C1CN(c2c(O)cc3ccc(OCCOC4CCC4)cc3c2F)S(=O)(=O)N1` [Compound 214, 5-{7-[2-(cyclobutyloxy)ethoxy]-1-fluoro-3-hydroxynaphthalen-2-yl}-1λ^6,2,5-thiadiazolidine-1,1,3-trione] was tested. Which IC50 [1] did it give?
**A.** 1 to 10 nM

**Q.** What about the inhibition at 33 µM [2, 3] of the same compound?
**A.** 60 to 90%

**Q.** What about the inhibition at 33 µM [2, 4] of the same compound?
**A.** < 25%

**Q.** `CC(C)OCCOc1ccc2cc(O)c(N3CC(=O)NS3(=O)=O)c(F)c2c1` [Compound 215, 5-(1-fluoro-3-hydroxy-7-{2-[(propan-2-yl)oxy]ethoxy}naphthalen-2-yl)-1λ^6,2,5-thiadiazolidine-1,1,3-trione] was tested. Which IC50 [1] did it give?
**A.** 1 to 10 nM

**Q.** And the inhibition at 33 µM [2, 3]?
**A.** 60 to 90%

**Q.** What about the inhibition at 33 µM [2, 4] of the same compound?
**A.** < 25%

**Q.** Which IC50 [1] does the source give for `CCOCCCOc1ccc2cc(O)c(N3CC(=O)NS3(=O)=O)c(F)c2c1` [Compound 216, 5-[7-(3-ethoxypropoxy)-1-fluoro-3-hydroxynaphthalen-2-yl]-1λ^6,2,5-thiadiazolidine-1,1,3-trione] here?
**A.** 1 to 10 nM

**Q.** And the inhibition at 33 µM [2, 3]?
**A.** 25 to 59%

**Q.** What about the inhibition at 33 µM [2, 4] of the same compound?
**A.** < 25%

**Q.** `CC(C)(C)OCCOc1ccc2cc(O)c(N3CC(=O)NS3(=O)=O)c(F)c2c1` [Compound 217, 5-[7-(2-tert-butoxyethoxy)-1-fluoro-3-hydroxynaphthalen-2-yl]-1λ^6,2,5-thiadiazolidine-1,1,3-trione] was tested. Which IC50 [1] did it give?
**A.** 1 to 10 nM

**Q.** What about the inhibition at 33 µM [2, 3] of the same compound?
**A.** 25 to 59%

**Q.** And the inhibition at 33 µM [2, 4]?
**A.** < 25%

**Q.** With `O=C1CN(c2c(O)cc3ccc(OC4CC4)cc3c2F)S(=O)(=O)N1` [Compound 223, 5-[7-(cyclopropyloxy)-1-fluoro-3-hydroxynaphthalen-2-yl]-1λ^6,2,5-thiadiazolidine-1,1,3-trione] as the compound, how does the IC50 [1] read?
**A.** 1 to 10 nM

**Q.** And the inhibition at 33 µM [2, 3]?
**A.** 60 to 90%

**Q.** And the inhibition at 33 µM [2, 4]?
**A.** < 25%

**Q.** For `O=C1CN(c2c(O)cc3ccc(NCCC4CC4)cc3c2F)S(=O)(=O)N1` [Compound 224, 5-{7-[(2-cyclopropylethyl)amino]-1-fluoro-3-hydroxynaphthalen-2-yl}-1λ^6,2,5-thiadiazolidine-1,1,3-trione], which IC50 [1] is on record?
**A.** 1 to 10 nM

**Q.** What about the inhibition at 33 µM [2, 3] of the same compound?
**A.** > 90%

**Q.** What about the inhibition at 33 µM [2, 4] of the same compound?
**A.** < 25%

**Q.** Which results are given for `O=C1CN(c2c(O)cc3ccc(C4CNC4)cc3c2F)S(=O)(=O)N1` [Compound 226, 5-[7-(azetidin-3-yl)-1-fluoro-3-hydroxynaphthalen-2-yl]-1λ^6,2,5-thiadiazolidine-1,1,3-trione]?
**A.** IC50 [1]: 1 to 10 nM; inhibition at 33 µM [2, 3]: 60 to 90%; inhibition at 33 µM [2, 4]: < 25%

**Q.** With `COc1ccc(-c2ccc3cc(O)c(N4CC(=O)NS4(=O)=O)c(F)c3c2)s1` [Compound 227, 5-[1-fluoro-3-hydroxy-7-(5-methoxythiophen-2-yl)naphthalen-2-yl]-1λ^6,2,5-thiadiazolidine-1,1,3-trione] as the compound, how does the IC50 [1] read?
**A.** 1 to 10 nM

**Q.** And the inhibition at 33 µM [2, 3]?
**A.** 60 to 90%

**Q.** What about the inhibition at 33 µM [2, 4] of the same compound?
**A.** < 25%

**Q.** Which IC50 [1] does the source give for `O=C1CN(c2c(O)cc3ccc(OCC4CC(F)(F)C4)cc3c2F)S(=O)(=O)N1` [Compound 235, 5-{7-[(3,3-difluorocyclobutyl)methoxy]-1-fluoro-3-hydroxynaphthalen-2-yl}-1λ^6,2,5-thiadiazolidine-1,1,3-trione] here?
**A.** 1 to 10 nM

**Q.** What about the inhibition at 33 µM [2, 3] of the same compound?
**A.** 60 to 90%

**Q.** What about the inhibition at 33 µM [2, 4] of the same compound?
**A.** < 25%

**Q.** For `O=C1CN(c2c(O)cc3ccc(C4=CCN(C(=O)C5CC5)C4)cc3c2F)S(=O)(=O)N1` [Compound 237, 5-{7-[1-(cyclopropanecarbonyl)-2,5-dihydro-1H-pyrrol-3-yl]-1-fluoro-3-hydroxynaphthalen-2-yl}-1λ^6,2,5-thiadiazolidine-1,1,3-trione], which IC50 [1] is on record?
**A.** 1 to 10 nM

**Q.** What about the inhibition at 33 µM [2, 3] of the same compound?
**A.** > 90%

**Q.** What about the inhibition at 33 µM [2, 4] of the same compound?
**A.** < 25%

**Q.** Which IC50 [1] does the source give for `COc1ccc2c(Cl)c(O)c(N3CC(=O)NS3(=O)=O)c(F)c2c1` [Compound 238, 5-(4-chloro-1-fluoro-3-hydroxy-7-methoxynaphthalen-2-yl)-1λ^6,2,5-thiadiazolidine-1,1,3-trione] here?
**A.** 10 to 100 nM

**Q.** What about the inhibition at 33 µM [2, 3] of the same compound?
**A.** < 25%

**Q.** And the inhibition at 33 µM [2, 4]?
**A.** < 25%

**Q.** Which IC50 [1] does the source give for `O=C1CN(c2c(O)cc3ccc(/C=C/C4CC4)cc3c2F)S(=O)(=O)N1` [Compound 239, 5-{7-[(E)-2-cyclopropylethenyl]-1-fluoro-3-hydroxynaphthalen-2-yl}-1λ^6,2,5-thiadiazolidine-1,1,3-trione] here?
**A.** 1 to 10 nM

**Q.** What about the inhibition at 33 µM [2, 3] of the same compound?
**A.** 60 to 90%

**Q.** And the inhibition at 33 µM [2, 4]?
**A.** < 25%

**Q.** With `CC(C)C/C=C/c1ccc2cc(O)c(N3CC(=O)NS3(=O)=O)c(F)c2c1` [Compound 240, 5-{1-fluoro-3-hydroxy-7-[(1E)-4-methylpent-1-en-1-yl]naphthalen-2-yl}-1λ^6,2,5-thiadiazolidine-1,1,3-trione] as the compound, how does the IC50 [1] read?
**A.** 1 to 10 nM

**Q.** What about the inhibition at 33 µM [2, 3] of the same compound?
**A.** 25 to 59%

**Q.** And the inhibition at 33 µM [2, 4]?
**A.** < 25%

**Q.** For `O=C1CN(c2c(O)cc3ccc(C4=CCN(CC5CC5)C4)cc3c2F)S(=O)(=O)N1` [Compound 242, 5-{7-[1-(cyclopropylmethyl)-2,5-dihydro-1H-pyrrol-3-yl]-1-fluoro-3-hydroxynaphthalen-2-yl}-1λ^6,2,5-thiadiazolidine-1,1,3-trione], which IC50 [1] is on record?
**A.** 1 to 10 nM

**Q.** And the inhibition at 33 µM [2, 3]?
**A.** 60 to 90%

**Q.** And the inhibition at 33 µM [2, 4]?
**A.** < 25%

**Q.** Which results are given for `COc1ccc2c(Br)c(O)c(N3CC(=O)NS3(=O)=O)c(F)c2c1` [Compound 243, 5-(4-bromo-1-fluoro-3-hydroxy-7-methoxynaphthalen-2-yl)-1λ^6,2,5-thiadiazolidine-1,1,3-trione]?
**A.** IC50 [1]: 10 to 100 nM; inhibition at 33 µM [2, 3]: 25 to 59%; inhibition at 33 µM [2, 4]: < 25%

**Q.** For `COC/C=C/c1ccc2cc(O)c(N3CC(=O)NS3(=O)=O)c(F)c2c1` [Compound 245, 5-{1-fluoro-3-hydroxy-7-[(1E)-3-methoxyprop-1-en-1-yl]naphthalen-2-yl}-1λ^6,2,5-thiadiazolidine-1,1,3-trione], which IC50 [1] is on record?
**A.** 1 to 10 nM

**Q.** What about the inhibition at 33 µM [2, 3] of the same compound?
**A.** 60 to 90%

**Q.** What about the inhibition at 33 µM [2, 4] of the same compound?
**A.** < 25%

**Q.** Which IC50 [1] does the source give for `CCOCCOc1ccc2cc(O)c(N3CC(=O)NS3(=O)=O)c(F)c2c1` [Compound 246, 5-[7-(2-ethoxyethoxy)-1-fluoro-3-hydroxynaphthalen-2-yl]-1λ^6,2,5-thiadiazolidine-1,1,3-trione] here?
**A.** 1 to 10 nM

**Q.** What about the inhibition at 33 µM [2, 3] of the same compound?
**A.** 60 to 90%

**Q.** What about the inhibition at 33 µM [2, 4] of the same compound?
**A.** < 25%

**Q.** What does the source list for `COCCCOc1ccc2cc(O)c(N3CC(=O)NS3(=O)=O)c(F)c2c1` [Compound 247, 5-[1-fluoro-3-hydroxy-7-(3-methoxypropoxy)naphthalen-2-yl]-1λ^6,2,5-thiadiazolidine-1,1,3-trione]?
**A.** IC50 [1]: 1 to 10 nM; inhibition at 33 µM [2, 3]: 60 to 90%; inhibition at 33 µM [2, 4]: < 25%
